# Laboratory results from the supplement of paper PMC11061612.
# What was measured:
# Assay in all cases: Bliss excess, mean over the matrix (fraction); higher = more synergy
# [1] = system: NCI-H23 (Lung Adenocarcinoma)
# Summary of the method: (§1)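 Cell lines grown in DMEM/F12 or RPMI with 10% FBS were plated in 1536-well plates and held 24 hours at 37°C, 5% CO2 before 72 hours of exposure to two-drug dose matrices, with DMSO typically at 0.2%. CellTiter-Glo 2.0 luminescence gave viability, which was converted to inhibition. Vehicle wells were set to 0 and blank wells to 1. Combination Emax is the second-highest inhibition in the matrix, and Bliss excess is the observed combination effect minus the expected EA + EB − EA·EB, where EA and EB are the single-agent effects.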
# [2] = system: COLO-680N (Esophageal Squamous Cell Carcinoma)
# Summary of the method: as §1
# LN-229 (Glioblastoma) = system: LN-229 (Glioblastoma)
# Summary of the method: as §1
# [3] = system: RERF-GC-1B (Gastric Carcinoma)
# Summary of the method: as §1
# [4] = system: RCM-1 (Colorectal Carcinoma)
# Summary of the method: as §1
# [5] = system: MKN45 (Gastric Carcinoma)
# Summary of the method: as §1
# [6] = system: HSC-39 (Gastric Carcinoma)
# Summary of the method: as §1
# [7] = system: HEC-1 (Endometrial Carcinoma)
# Summary of the method: as §1
# [8] = system: SU-DHL-10 (B-Cell Non-Hodgkin's Lymphoma)
# Summary of the method: as §1
# [9] = system: OAW-42 (Ovarian Carcinoma)
# Summary of the method: as §1
# [10] = system: VAL (B-Cell Non-Hodgkin's Lymphoma)
# Summary of the method: as §1
# IST-MES1 (Mesothelioma) = system: IST-MES1 (Mesothelioma)
# Summary of the method: as §1
# [11] = system: CAL-120 (Breast Carcinoma)
# Summary of the method: as §1
# [12] = system: NCI-H2342 (Lung Adenocarcinoma)
# Summary of the method: as §1
# GB-1 (Glioblastoma) = system: GB-1 (Glioblastoma)
# Summary of the method: as §1
# [13] = system: 23132-87 (Gastric Carcinoma)
# Summary of the method: as §1
# [14] = system: LB996-RCC (Kidney Carcinoma)
# Summary of the method: as §1
# [15] = system: GP5d (Colorectal Carcinoma)
# Summary of the method: as §1
# [16] = system: MFE-280 (Endometrial Carcinoma)
# Summary of the method: as §1
# [17] = system: RERF-LC-Sq1 (Squamous Cell Lung Carcinoma)
# Summary of the method: as §1
SMILES,Bliss excess [1],Bliss excess [2],Bliss excess (LN-229 (Glioblastoma)),Bliss excess [3],Bliss excess [4],Bliss excess [5],Bliss excess [6],Bliss excess [7],Bliss excess [8],Bliss excess [9],Bliss excess [10],Bliss excess (IST-MES1 (Mesothelioma)),Bliss excess [11],Bliss excess [12],Bliss excess (GB-1 (Glioblastoma)),Bliss excess [13],Bliss excess [14],Bliss excess [15],Bliss excess [16],Bliss excess [17]
"CN(C)CCCOc1ccc(-c2ccc3ncc4c(c3c2)n(C2CCOCC2)c(=O)n4C)cn1 [AZD0156] + O=C(c1cc(Cc2n[nH]c(=O)c3ccccc23)ccc1F)N1CCN(C(=O)C2CC2)CC1 [Olaparib] (first compound max 3 µM, partner max 3 µM)",0.0049,-0.0076,-0.0258,-0.0079,0.003,-0.0028,0.128,-0.0173,0.11,0.0145,0.141,-0.0141,0.0047,-0.0504,0.014,0.198,0.0071,0.0682,0.0591,0.0396
"C=CCn1c(=O)c2cnc(Nc3ccc(N4CCN(C)CC4)cc3)nc2n1-c1cccc(C(C)(C)O)n1 [AZD1775] + C1CN(CCC1(C(=O)N[C@@H](CCO)C2=CC=C(C=C2)Cl)N)C3=NC=NC4=C3C=CN4 [Capivasertib] (first compound max 3 µM, partner max 3 µM)",-0.0135,0.0133,-0.062,-0.0632,0.0141,-0.0736,0.0067,-0.0424,0.0484,-0.0399,-0.0252,-0.0056,-0.0265,-0.0136,-0.0211,-0.0207,-0.0587,-0.0274,-0.0055,-0.0483
"CN(CCO)CC[C@H](CSc1ccccc1)Nc1ccc(S(=O)(=O)NC(=O)c2ccc(N3CCC([C@@H](O)c4ccccc4-c4ccc(Cl)cc4)CC3)cc2)cc1S(=O)(=O)C(F)(F)F [AZD4320] + C1CN(CCC1(C(=O)N[C@@H](CCO)C2=CC=C(C=C2)Cl)N)C3=NC=NC4=C3C=CN4 [Capivasertib] (first compound max 1 µM, 7x7, partner max 3 µM)",-0.0273,-0.0411,-0.0443,0.0036,-0.0768,-0.0977,-0.0072,-0.0759,0.0129,-0.0274,0.0595,-0.0371,-0.0649,-0.0259,-0.0274,-0.0483,0.0014,-0.0396,0.0092,-0.0223
"CN(CCO)CC[C@H](CSc1ccccc1)Nc1ccc(S(=O)(=O)NC(=O)c2ccc(N3CCC([C@@H](O)c4ccccc4-c4ccc(Cl)cc4)CC3)cc2)cc1S(=O)(=O)C(F)(F)F [AZD4320] + CCN(CCO)CCCOc1ccc2c(Nc3cc(CC(=O)Nc4cccc(F)c4)[nH]n3)ncnc2c1 [AZD2811] (first compound max 1 µM, 7x7, partner max 1 µM)",0.0244,-0.0373,-0.0074,-0.0034,-0.0207,-0.0438,-0.0338,-0.0049,-0.0949,-0.0359,-0.0063,-0.0265,0.0227,-0.036,-0.0189,-0.0339,0.0389,0.0026,0.0821,0.0012
"CN(CCO)CC[C@H](CSc1ccccc1)Nc1ccc(S(=O)(=O)NC(=O)c2ccc(N3CCC([C@@H](O)c4ccccc4-c4ccc(Cl)cc4)CC3)cc2)cc1S(=O)(=O)C(F)(F)F [AZD4320] + CN(C)CCCOc1ccc(-c2ccc3ncc4c(c3c2)n(C2CCOCC2)c(=O)n4C)cn1 [AZD0156] (first compound max 1 µM, 7x7, partner max 1 µM)",-0.0118,-0.028,-0.0218,0.0211,-0.0538,-0.0612,0.0099,-0.0414,-0.0158,-0.0088,0.0174,-0.041,-0.0225,-0.0214,-0.0272,-0.0277,-0.0541,-0.0087,0.0113,-0.0601
"CN(CCO)CC[C@H](CSc1ccccc1)Nc1ccc(S(=O)(=O)NC(=O)c2ccc(N3CCC([C@@H](O)c4ccccc4-c4ccc(Cl)cc4)CC3)cc2)cc1S(=O)(=O)C(F)(F)F [AZD4320] + C[C@@H]1COCCN1C2=NC(=NC(=C2)C3(CC3)[S@](=N)(=O)C)C4=C5C=CNC5=NC=C4 [AZD6738] (first compound max 1 µM, 7x7, partner max 10 µM)",-0.0073,-0.0302,0.0358,0.072,-0.0391,-0.0471,-0.0108,0.0028,0.0076,-0.0315,0.0095,-0.0338,-0.0313,-0.0429,-0.0314,0.0832,-0.0179,-0.0515,0.0099,-0.0082
"CN(CCO)CC[C@H](CSc1ccccc1)Nc1ccc(S(=O)(=O)NC(=O)c2ccc(N3CCC([C@@H](O)c4ccccc4-c4ccc(Cl)cc4)CC3)cc2)cc1S(=O)(=O)C(F)(F)F [AZD4320] + C[C@@H](Nc1cc(F)cc(F)c1)c1cc(C(=O)N(C)C)cc2c(=O)cc(N3CCOCC3)oc12 [AZD8186] (first compound max 1 µM, 7x7, partner max 3 µM)",0.08,0.0088,0.0166,0.0112,-0.0416,-0.0724,0.0229,0.0133,0.0092,0.0688,0.0137,0.0552,0.0037,-0.0065,-0.0289,-0.031,0.0394,-0.0378,0.0097,-0.0169
"CN(CCO)CC[C@H](CSc1ccccc1)Nc1ccc(S(=O)(=O)NC(=O)c2ccc(N3CCC([C@@H](O)c4ccccc4-c4ccc(Cl)cc4)CC3)cc2)cc1S(=O)(=O)C(F)(F)F [AZD4320] + Cc1cc2ncnn2cc1Nc1ncc2c(n1)n(C1CCOCC1)c(=O)n2C [AZD7648] (first compound max 1 µM, 7x7, partner max 10 µM)",-0.0298,-0.0437,-0.0393,0.0231,-0.0153,-0.0744,0.0221,-0.0402,0.0212,-0.0118,0.0316,-0.042,-0.0367,-0.0475,-0.0225,-0.0311,-0.0232,-0.052,-0.0471,-0.0418
"COc1nnc2ccc(N3CCC(c4ccc(OCCN5CCN(C)C(=O)[C@H]5C)cc4)CC3)nn12 [AZD5153] + C=CCn1c(=O)c2cnc(Nc3ccc(N4CCN(C)CC4)cc3)nc2n1-c1cccc(C(C)(C)O)n1 [AZD1775] (first compound max 1 µM, partner max 1 µM)",-0.027,-0.0746,-0.039,-0.114,-0.0498,-0.105,-0.0516,0.0363,-0.0044,-0.0338,-0.126,-0.0347,-0.0176,-0.0347,0.056,0.0309,-0.052,-0.0279,-0.0779,-0.1
"COc1nnc2ccc(N3CCC(c4ccc(OCCN5CCN(C)C(=O)[C@H]5C)cc4)CC3)nn12 [AZD5153] + CC1(C)CCC(CN2CCN(c3ccc(C(=O)NS(=O)(=O)c4ccc(NCC5CCOCC5)c([N+](=O)[O-])c4)c(Oc4cnc5[nH]ccc5c4)c3)CC2)=C(c2ccc(Cl)cc2)C1 [Venetoclax] (first compound max 1 µM, 7x7, partner max 1 µM)",-0.0473,-0.0372,-0.0496,-0.0442,-0.0191,-0.0389,0.0439,-0.0443,-0.0221,-0.0201,-0.0493,-0.0237,-0.0434,-0.0384,-0.062,-0.0697,-0.0178,-0.0741,-0.0138,-0.0246
"COc1nnc2ccc(N3CCC(c4ccc(OCCN5CCN(C)C(=O)[C@H]5C)cc4)CC3)nn12 [AZD5153] + CCN(CCO)CCCOc1ccc2c(Nc3cc(CC(=O)Nc4cccc(F)c4)[nH]n3)ncnc2c1 [AZD2811] (first compound max 1 µM, 7x7, partner max 1 µM)",-0.0412,-0.0833,0.0112,-0.096,-0.03,-0.01,-0.006,-0.0176,-0.049,-0.0491,-0.0945,-0.0132,0.0045,-0.01,-0.0787,-0.0223,-0.106,-0.082,-0.0343,0.0063
"COc1nnc2ccc(N3CCC(c4ccc(OCCN5CCN(C)C(=O)[C@H]5C)cc4)CC3)nn12 [AZD5153] + C[C@@H]1COCCN1C2=NC(=NC(=C2)C3(CC3)[S@](=N)(=O)C)C4=C5C=CNC5=NC=C4 [AZD6738] (first compound max 1 µM, 7x7, partner max 10 µM)",-0.0105,0.0046,0.0224,0.0429,-0.115,-0.0649,-0.0055,0.0625,-0.038,0.0752,-0.111,-0.0183,0.0309,0.0133,0.0446,0.0394,-0.0142,-0.0421,-0.0103,0.0033
"Cc1c2c(nn1C)CSCc1cc(n(C)n1)CSc1cc(c3ccccc3c1)OCCCc1c(C(=O)O)n(C)c3c-2c(Cl)ccc13 [AZD5991] + Cc1cc2ncnn2cc1Nc1ncc2c(n1)n(C1CCOCC1)c(=O)n2C [AZD7648] (first compound max 1 µM, 7x7, partner max 10 µM)",-0.0431,-0.0177,-0.0525,-0.0085,-0.0149,-0.0528,0.0095,-0.0375,0.0328,-0.0419,-0.0356,-0.0122,-0.0059,-0.0535,-0.0429,-0.0679,-0.0662,-0.0338,,-0.0088
